{"source": "ChEMBL document CHEMBL3616373", "about": "“Identification of N-sulfonyl-tetrahydroquinolines as RORc inverse agonists” (Bioorg Med Chem Lett, 2015)", "assay_type_in_all_cases": "cell-based", "key": {"[1]": {"system": "HEK293", "assay": "Selectivity ratio of EC50 for GAL4-fused human LXRbeta expressed in HEK293 cells to EC50 for GAL4-fused human RORc expressed in HEK293 cells"}, "[2]": {"system": "HEK293", "assay": "Selectivity ratio of EC50 for GAL4-fused human PXR expressed in HEK293 cells to EC50 for GAL4-fused human RORc expressed in HEK293 cells"}, "[3]": {"system": "HEK293", "assay": "Selectivity ratio of EC50 for GAL4-fused human RORa expressed in HEK293 cells to EC50 for GAL4-fused human RORc expressed in HEK293 cells"}, "[4]": {"system": "HEK293", "assay": "Selectivity ratio of EC50 for GAL4-fused human FXR expressed in HEK293 cells to EC50 for GAL4-fused human RORc expressed in HEK293 cells"}}}
{"smiles": "O=C(Nc1ccc2c(c1)N(S(=O)(=O)c1ccc(F)cc1)CC2)c1c(F)cccc1F", "values": [{"measurement": "Ratio EC50", "setting": "[1]", "result": 15}, {"measurement": "Ratio EC50", "setting": "[2]", "result": 15}, {"measurement": "Ratio EC50", "setting": "[3]", "result": 28}, {"measurement": "Ratio EC50", "setting": "[4]", "result": 15}]}
